Drawing on ChEMBL document CHEMBL1157499, “Synthesis and biological evaluation of 1-(benzenesulfonamido)-2-[5-(N-hydroxypyridin-2(1H)-one)]acetylene regioisomers: a novel class of 5-lipoxygenase inhibitors” (Bioorg Med Chem Lett, 2008), this text covers Activity and ED50 for three compounds.

A word on the ED50: it is the dose at which the effect has come halfway, by size or by number of responders. Read a low ED50 as an effect at a small dose.

Activity calls are given as the source filed them. No cut-off for these calls is given here.

The test deals with Rattus norvegicus. Kind of test: Antiinflammatory activity against carrageenan-induced paw edema in po dosed rat after 3 hrs. It is filed as functional. (The carrageenan paw model is a standard test of acute inflammation.)

Regarding `NS(=O)(=O)c1ccc(C#Cc2ccc(=O)n(O)c2)cc1`, the outcome was inactive.

Take `NS(=O)(=O)c1cccc(C#Cc2ccc(=O)n(O)c2)c1`: the result was inactive.

For the compound `NS(=O)(=O)c1ccccc1C#Cc1ccc(=O)n(O)c1`, the 50% effect level (ED50) was put at a dose of 86 mg/kg.
